# According to PMC4676015, “Variant fatty acid-like molecules Conjugation, novel approaches for extending the stability of therapeutic peptides” (Scientific Reports, 2015):
# Tests used:
# [1] = cited from earlier work
# DPP IV enzyme = target: T1, DPP IV enzyme (Homo sapiens, UniProt P27487); assay: Stability against DPP IV proteolysis with or without HSA; assay type: in vitro ADME; settings: for degradation in DPP IV proteolysis compared with wild-type GLP-1, within 24 h / detectability of full-length peptide at 24 h: DPP IV 0.1 mg/ml, peptide 1 mg/ml; for degradation in DPP IV proteolysis compared with wild-type GLP-1, within 24 h: 25 mM potassium phosphate, 25 mM KCl, 5 mM MgCl2, pH 7.0, 2% HSA; for detectability of full-length peptide at 24 h: pH 7.0, in the presence of human serum albumin (2%)
# T1 construct: purchased Sigma-Aldrich
# Description: DPP IV enzyme (0.1 mg/ml) was dissolved in 25 mM potassium phosphate buffer containing 25 mM potassium chloride and 5 mM magnesium chloride, pH 7.0.
# GLP-1 receptor (GLP-1R) = target: T2, GLP-1 receptor (GLP-1R) (Rattus norvegicus, UniProt P32301); assay: GLP-1 receptor binding assay (cellular ELISA)
# T2 construct: endogenous in cells; host or cells: rat INS-1 cells
# T2 sequence (P32301 22-463): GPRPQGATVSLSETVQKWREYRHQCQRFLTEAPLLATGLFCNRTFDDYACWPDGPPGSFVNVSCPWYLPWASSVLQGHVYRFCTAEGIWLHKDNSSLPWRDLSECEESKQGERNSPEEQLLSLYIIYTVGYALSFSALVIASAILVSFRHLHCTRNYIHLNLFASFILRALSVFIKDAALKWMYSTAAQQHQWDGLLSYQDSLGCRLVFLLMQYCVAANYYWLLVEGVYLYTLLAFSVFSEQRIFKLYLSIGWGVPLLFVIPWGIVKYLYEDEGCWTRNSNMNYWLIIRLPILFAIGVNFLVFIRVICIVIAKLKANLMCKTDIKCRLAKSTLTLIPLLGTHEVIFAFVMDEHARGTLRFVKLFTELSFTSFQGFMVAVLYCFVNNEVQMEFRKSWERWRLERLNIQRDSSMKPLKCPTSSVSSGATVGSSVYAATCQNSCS
# Description: Cells were rinsed with PBS and fixed with 4% paraformaldehyde (Thermo Scientific) for 10 min at room temperature and quenched for 5 min with 2% glycine in PBS, pH 7.5. […] After a 2 h incubation at 37 °C in a final volume of 100 μl, the excess peptides were washed, and the cells were blocked with 5% BSA (BD Biosciences). […] Colorimetric changes were analyzed by reading the absorbance at 450 nm in a SpectraMax M5 (Molecular Device) microplate reader. The peptide concentration was plotted against UV absorbance, and the Kd was calculated using Origin 7.0 software.
# [2] = Blood retention time measurement; settings: 500 μg/kg s.c., Wistar rats, n = 5, GLP-1 (7–37) ELISA
# [3] = DPP IV proteolysis solution, 37 °C, GLP-1 (7–37) ELISA, P < 0.01
# T1 sequence (P27487 whole entry, species assumed): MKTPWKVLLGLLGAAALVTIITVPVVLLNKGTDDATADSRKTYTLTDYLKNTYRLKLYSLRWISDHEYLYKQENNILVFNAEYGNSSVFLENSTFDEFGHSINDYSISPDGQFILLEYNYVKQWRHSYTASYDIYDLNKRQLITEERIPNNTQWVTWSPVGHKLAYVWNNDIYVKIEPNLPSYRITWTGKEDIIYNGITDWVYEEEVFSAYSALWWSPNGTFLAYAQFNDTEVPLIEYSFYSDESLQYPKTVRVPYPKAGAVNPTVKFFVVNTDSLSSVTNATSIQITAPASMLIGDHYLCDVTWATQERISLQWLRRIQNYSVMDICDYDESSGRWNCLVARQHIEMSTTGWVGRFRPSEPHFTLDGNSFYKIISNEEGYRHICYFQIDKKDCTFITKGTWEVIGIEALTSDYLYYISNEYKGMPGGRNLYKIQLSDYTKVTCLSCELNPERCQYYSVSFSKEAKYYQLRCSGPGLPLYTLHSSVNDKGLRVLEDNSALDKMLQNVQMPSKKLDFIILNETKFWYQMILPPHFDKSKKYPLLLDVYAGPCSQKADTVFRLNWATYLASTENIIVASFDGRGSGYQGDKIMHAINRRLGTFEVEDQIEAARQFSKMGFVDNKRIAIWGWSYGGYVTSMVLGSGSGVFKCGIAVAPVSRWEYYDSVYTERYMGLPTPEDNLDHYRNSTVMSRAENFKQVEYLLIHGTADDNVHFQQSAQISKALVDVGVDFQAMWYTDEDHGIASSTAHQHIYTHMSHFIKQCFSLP
SMILES,"degradation in DPP IV proteolysis compared with wild-type GLP-1, within 24 h (DPP IV enzyme; 37 °C, GLP-1 (7–37) ELISA)","detectability of full-length peptide at 24 h (DPP IV enzyme; 37 °C, GLP-1 (7–37) ELISA)",Kd (GLP-1 receptor (GLP-1R)) [nM],AUCGLP-1(7–37) in proteolysis solution compared to native GLP-1 (DPP IV enzyme; [3]),increase of circulating amount (AUC GLP-1 (7-37)) compared with native GLP-1 ([2]; 0.5-96 h) [fold],blood retention / serum level behaviour [2],"AUC0–24 h, amount of undigested GLP-1 fragments compared with wild-type GLP-1 (DPP IV enzyme; DPP IV proteolysis solution, 37 °C, 0-24 h, GLP-1 (7–37) ELISA, P < 0.01)","degradation rate against DPP IV compared with compounds 6 and 21, respectively (DPP IV enzyme; DPP IV proteolysis, same carbon chain length without free carboxyl group as comparator)","stability (half-life) of native GLP-1 ([1]; degradation by DPP-IV, reference not given) [min]",renal clearance ([1]; in vivo)
"CC[C@H](C)[C@H](NC(=O)[C@H](Cc1ccccc1)NC(=O)[C@H](CCC(=O)O)NC(=O)[C@H](CCCCN)NC(=O)[C@H](C)NC(=O)[C@H](C)NC(=O)[C@H](CCC(N)=O)NC(=O)CNC(=O)[C@H](CCC(=O)O)NC(=O)[C@H](CC(C)C)NC(=O)[C@H](Cc1ccc(O)cc1)NC(=O)[C@H](CO)NC(=O)[C@H](CO)NC(=O)[C@@H](NC(=O)[C@H](CC(=O)O)NC(=O)[C@H](CO)NC(=O)[C@@H](NC(=O)[C@H](Cc1ccccc1)NC(=O)[C@@H](NC(=O)CNC(=O)[C@H](CCC(=O)O)NC(=O)[C@H](C)NC(=O)[C@@H](N)Cc1c[nH]cn1)[C@@H](C)O)[C@@H](C)O)C(C)C)C(=O)N[C@@H](C)C(=O)N[C@@H](Cc1c[nH]c2ccccc12)C(=O)N[C@@H](CC(C)C)C(=O)N[C@H](C(=O)N[C@@H](CCCCN)C(=O)NCC(=O)N[C@@H](CCCN=C(N)N)C(=O)NCC(=O)O)C(C)C [GLP-1, glucagon-like peptide-1]",,,,,,,,,3 to 5,less than 10 min
CCCCCCCCCCCCCCCCNC(=O)C[C@H](NC(=O)[C@@H](NC(=O)[C@H](CC(C)C)NC(=O)[C@H](Cc1c[nH]c2ccccc12)NC(=O)[C@H](C)NC(=O)[C@@H](NC(=O)[C@H](Cc1ccccc1)NC(=O)[C@H](CCC(=O)O)NC(=O)[C@H](CCCCN)NC(=O)[C@H](C)NC(=O)[C@H](C)NC(=O)[C@H](CCC(N)=O)NC(=O)CNC(=O)[C@H](CCC(=O)O)NC(=O)[C@H](CC(C)C)NC(=O)[C@H](Cc1ccc(O)cc1)NC(=O)[C@H](CO)NC(=O)[C@H](CO)NC(=O)[C@@H](NC(=O)[C@H](CC(=O)O)NC(=O)[C@H](CO)NC(=O)[C@@H](NC(=O)[C@H](Cc1ccccc1)NC(=O)[C@@H](NC(=O)CNC(=O)[C@H](CCC(=O)O)NC(=O)[C@H](C)NC(=O)[C@@H](N)Cc1c[nH]cn1)[C@@H](C)O)[C@@H](C)O)C(C)C)[C@@H](C)CC)C(C)C)C(=O)NCC(=O)N[C@@H](CCCNC(=N)N)C(=O)NCC(=O)O [compound 21],,still detectable at 24 h,17.5 ± 2.75,significantly increased,,,,,,
CC[C@H](C)[C@H](NC(=O)[C@H](Cc1ccccc1)NC(=O)[C@H](CCC(=O)O)NC(=O)[C@H](CCCCN)NC(=O)[C@H](C)NC(=O)[C@H](C)NC(=O)[C@H](CCC(N)=O)NC(=O)CNC(=O)[C@H](CCC(=O)O)NC(=O)[C@H](CC(C)C)NC(=O)[C@H](Cc1ccc(O)cc1)NC(=O)[C@H](CO)NC(=O)[C@H](CO)NC(=O)[C@@H](NC(=O)[C@H](CC(=O)O)NC(=O)[C@H](CO)NC(=O)[C@@H](NC(=O)[C@H](Cc1ccccc1)NC(=O)[C@@H](NC(=O)CNC(=O)[C@H](CCC(=O)O)NC(=O)[C@H](C)NC(=O)[C@@H](N)Cc1c[nH]cn1)[C@@H](C)O)[C@@H](C)O)C(C)C)C(=O)N[C@@H](C)C(=O)N[C@@H](Cc1c[nH]c2ccccc12)C(=O)N[C@@H](CC(C)C)C(=O)N[C@H](C(=O)N[C@@H](CC(=O)NCCCCCCCCCCCC(=O)O)C(=O)NCC(=O)N[C@@H](CCCNC(=N)N)C(=O)NCC(=O)O)C(C)C [compound 22],,still detectable at 24 h,21.1 ± 2.34,significantly increased,2.6,extended the stabilities in vivo,approximately 3.5 fold,significantly lower degradation rates,,

# More lines, main results first:
"degradation in DPP IV proteolysis compared with wild-type GLP-1, within 24 h (DPP IV enzyme; 37 °C, GLP-1 (7–37) ELISA)","detectability of full-length peptide at 24 h (DPP IV enzyme; 37 °C, GLP-1 (7–37) ELISA)",Kd (GLP-1 receptor (GLP-1R)) [nM],AUCGLP-1(7–37) in proteolysis solution compared to native GLP-1 (DPP IV enzyme; [3]),increase of circulating amount (AUC GLP-1 (7-37)) compared with native GLP-1 ([2]; 0.5-96 h) [fold],blood retention / serum level behaviour [2],"AUC0–24 h, amount of undigested GLP-1 fragments compared with wild-type GLP-1 (DPP IV enzyme; DPP IV proteolysis solution, 37 °C, 0-24 h, GLP-1 (7–37) ELISA, P < 0.01)","degradation rate against DPP IV compared with compounds 6 and 21, respectively (DPP IV enzyme; DPP IV proteolysis, same carbon chain length without free carboxyl group as comparator)",SMILES,"stability (half-life) of native GLP-1 ([1]; degradation by DPP-IV, reference not given) [min]",renal clearance ([1]; in vivo)
slower degradation rates,still detectable at 24 h,18.7 ± 2.13,,,,,,CCCCCCCCCCCCNC(=O)CC[C@H](NC(=O)[C@H](CCCCN)NC(=O)[C@H](C)NC(=O)[C@H](C)NC(=O)[C@H](CCC(N)=O)NC(=O)CNC(=O)[C@H](CCC(=O)O)NC(=O)[C@H](CC(C)C)NC(=O)[C@H](Cc1ccc(O)cc1)NC(=O)[C@H](CO)NC(=O)[C@H](CO)NC(=O)[C@@H](NC(=O)[C@H](CC(=O)O)NC(=O)[C@H](CO)NC(=O)[C@@H](NC(=O)[C@H](Cc1ccccc1)NC(=O)[C@@H](NC(=O)CNC(=O)[C@H](CCC(=O)O)NC(=O)[C@H](C)NC(=O)[C@@H](N)Cc1c[nH]cn1)[C@@H](C)O)[C@@H](C)O)C(C)C)C(=O)N[C@@H](Cc1ccccc1)C(=O)N[C@H](C(=O)N[C@@H](C)C(=O)N[C@@H](Cc1c[nH]c2ccccc12)C(=O)N[C@@H](CC(C)C)C(=O)N[C@H](C(=O)N[C@@H](CCCCN)C(=O)NCC(=O)N[C@@H](CCCNC(=N)N)C(=O)NCC(=O)O)C(C)C)[C@@H](C)CC [compound 17],,
slower degradation rates,still detectable at 24 h,16.5 ± 2.17,,,,,,CCCCCCCCCCCCCCCCNC(=O)CC[C@H](NC(=O)[C@H](CCCCN)NC(=O)[C@H](C)NC(=O)[C@H](C)NC(=O)[C@H](CCC(N)=O)NC(=O)CNC(=O)[C@H](CCC(=O)O)NC(=O)[C@H](CC(C)C)NC(=O)[C@H](Cc1ccc(O)cc1)NC(=O)[C@H](CO)NC(=O)[C@H](CO)NC(=O)[C@@H](NC(=O)[C@H](CC(=O)O)NC(=O)[C@H](CO)NC(=O)[C@@H](NC(=O)[C@H](Cc1ccccc1)NC(=O)[C@@H](NC(=O)CNC(=O)[C@H](CCC(=O)O)NC(=O)[C@H](C)NC(=O)[C@@H](N)Cc1c[nH]cn1)[C@@H](C)O)[C@@H](C)O)C(C)C)C(=O)N[C@@H](Cc1ccccc1)C(=O)N[C@H](C(=O)N[C@@H](C)C(=O)N[C@@H](Cc1c[nH]c2ccccc12)C(=O)N[C@@H](CC(C)C)C(=O)N[C@H](C(=O)N[C@@H](CCCCN)C(=O)NCC(=O)N[C@@H](CCCNC(=N)N)C(=O)NCC(=O)O)C(C)C)[C@@H](C)CC [compound 18],,
,still detectable at 24 h,24.3 ± 1.96,significantly increased,,,,,CC[C@H](C)[C@H](NC(=O)[C@H](Cc1ccccc1)NC(=O)[C@H](CCC(=O)O)NC(=O)[C@H](CCCCN)NC(=O)[C@H](C)NC(=O)[C@H](C)NC(=O)[C@H](CCC(N)=O)NC(=O)CNC(=O)[C@H](CCC(=O)NCCCCCCCCCCCC(=O)O)NC(=O)[C@H](CC(C)C)NC(=O)[C@H](Cc1ccc(O)cc1)NC(=O)[C@H](CO)NC(=O)[C@H](CO)NC(=O)[C@@H](NC(=O)[C@H](CC(=O)O)NC(=O)[C@H](CO)NC(=O)[C@@H](NC(=O)[C@H](Cc1ccccc1)NC(=O)[C@@H](NC(=O)CNC(=O)[C@H](CCC(=O)O)NC(=O)[C@H](C)NC(=O)[C@@H](N)Cc1c[nH]cn1)[C@@H](C)O)[C@@H](C)O)C(C)C)C(=O)N[C@@H](C)C(=O)N[C@@H](Cc1c[nH]c2ccccc12)C(=O)N[C@@H](CC(C)C)C(=O)N[C@H](C(=O)N[C@@H](CCCCN)C(=O)NCC(=O)N[C@@H](CCCNC(=N)N)C(=O)NCC(=O)O)C(C)C [compound 23],,
